Data: US11318208B2, “Synthetic compound” (Syntab Therapeutics GmbH, priority 2016, dated 2022)
Square brackets hold non-standard residues; d marks the D form. Ends that are not written are not given here. * marks the point of attachment. Tyr(3-NO2) = N[C@@H](Cc1ccc(O)c([N+](=O)[O-])c1)C(=O)O; Hyp = O=C(O)[C@@H]1C[C@@H](O)CN1; For = O=C*

Columns and labels:
α3 Integrin [1] = target: T1, α3 Integrin (Homo sapiens, UniProt P05556+P26006); assay: FACS analysis of cell binding, binder targeting α3 Integrin; conditions: FIG. 8, 200 nM biotinylated binder, vs scrambled variant
T1 construct: endogenous in cells; host or cells: A431
T1 sequence (P26006 33-872 limits assumed): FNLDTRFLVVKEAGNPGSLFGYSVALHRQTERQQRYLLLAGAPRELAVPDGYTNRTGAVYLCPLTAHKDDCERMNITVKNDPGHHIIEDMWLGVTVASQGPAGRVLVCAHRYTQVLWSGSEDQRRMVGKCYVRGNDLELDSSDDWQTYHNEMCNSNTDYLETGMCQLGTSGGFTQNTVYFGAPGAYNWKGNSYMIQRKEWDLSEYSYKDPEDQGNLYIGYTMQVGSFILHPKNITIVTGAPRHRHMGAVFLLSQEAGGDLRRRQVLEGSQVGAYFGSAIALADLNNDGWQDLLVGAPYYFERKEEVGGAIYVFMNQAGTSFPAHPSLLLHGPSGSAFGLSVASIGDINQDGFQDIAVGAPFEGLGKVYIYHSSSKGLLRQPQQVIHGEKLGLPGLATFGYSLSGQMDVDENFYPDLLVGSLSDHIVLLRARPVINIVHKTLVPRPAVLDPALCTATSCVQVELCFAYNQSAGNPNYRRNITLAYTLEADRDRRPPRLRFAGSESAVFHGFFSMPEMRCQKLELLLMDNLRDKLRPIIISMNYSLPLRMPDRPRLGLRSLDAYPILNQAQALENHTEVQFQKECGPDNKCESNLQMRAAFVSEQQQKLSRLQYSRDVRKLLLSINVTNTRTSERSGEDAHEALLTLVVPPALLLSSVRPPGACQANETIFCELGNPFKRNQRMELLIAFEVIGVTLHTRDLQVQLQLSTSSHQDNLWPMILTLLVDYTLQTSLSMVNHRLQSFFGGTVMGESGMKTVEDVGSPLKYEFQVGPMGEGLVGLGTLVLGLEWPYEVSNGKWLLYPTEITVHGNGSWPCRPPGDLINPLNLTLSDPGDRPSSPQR
T1 sequence (P26006 873-1051 limits assumed): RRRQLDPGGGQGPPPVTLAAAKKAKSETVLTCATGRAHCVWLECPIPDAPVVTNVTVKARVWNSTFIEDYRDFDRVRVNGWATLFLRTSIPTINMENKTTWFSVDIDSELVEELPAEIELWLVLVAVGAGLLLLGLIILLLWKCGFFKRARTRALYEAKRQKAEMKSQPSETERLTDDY
T1 sequence (P05556 21-798): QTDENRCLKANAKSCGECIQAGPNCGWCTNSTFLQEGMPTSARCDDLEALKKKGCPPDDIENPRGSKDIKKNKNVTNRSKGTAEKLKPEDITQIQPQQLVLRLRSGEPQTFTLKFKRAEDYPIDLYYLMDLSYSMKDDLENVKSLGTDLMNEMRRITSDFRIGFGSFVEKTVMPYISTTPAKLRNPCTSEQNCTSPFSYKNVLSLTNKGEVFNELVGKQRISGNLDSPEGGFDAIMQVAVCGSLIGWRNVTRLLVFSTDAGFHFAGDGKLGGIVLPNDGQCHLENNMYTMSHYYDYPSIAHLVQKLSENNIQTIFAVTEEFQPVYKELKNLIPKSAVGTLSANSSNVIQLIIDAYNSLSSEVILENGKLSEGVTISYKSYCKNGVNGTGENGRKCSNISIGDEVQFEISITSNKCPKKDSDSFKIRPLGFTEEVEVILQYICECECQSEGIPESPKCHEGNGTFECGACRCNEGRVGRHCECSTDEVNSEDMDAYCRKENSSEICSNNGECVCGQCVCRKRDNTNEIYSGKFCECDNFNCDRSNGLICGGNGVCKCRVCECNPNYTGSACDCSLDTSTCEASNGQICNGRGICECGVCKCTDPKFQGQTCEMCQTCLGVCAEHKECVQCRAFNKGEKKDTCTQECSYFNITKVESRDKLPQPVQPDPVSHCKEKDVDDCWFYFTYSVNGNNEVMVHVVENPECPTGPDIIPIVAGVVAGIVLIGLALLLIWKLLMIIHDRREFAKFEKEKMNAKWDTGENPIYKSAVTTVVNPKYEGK
Description: (§1) The binding capability of peptides or peptidomimectis, of synthetic compounds according to the invention to different cell lines displaying particular targets was investigated by using flow cytometry. Detached cells were incubated with biotinylated peptide/peptidomimetic or biotinylated synthetic compound in blocking buffer for at least 30 min of ice. The cells were washed twice with washing buffer followed by incubation with streptavidin labeled with the Peridinin-chlorophyll protein PerCP-Cy5.5 (BD Biosciences) for 15 minutes on ice. After one additional wash step, samples were analyzed using FACS Canto (at least 10,000 cells per sample were counted) for cells which have bound the biotinylated reagent plus the streptavidin-PerCP-Cy5.5. Overlay histograms of cells incubated with peptide or control peptide were generated and the geometrical mean fluorescence of each sample was determined in FloJo. The EC50 measurements were calculated using Graph Prism software.
(§2) The following cell lines were used. The presence or absence of the surface antigens α3 Integrin and αvβ6 Integrin has been verified by corresponding antibody tests: […]

α3 Integrin [2] = assay: as above; parameters: species or system human; conditions: FIG. 8; 200 nM biotinylated binder; K 562 does not express α3 Integrin
Description: as §1, §2

αvβ6 Integrin [3] = assay: FACS analysis of cell binding, binder targeting αvβ6 Integrin; parameters: species or system human; conditions: FIG. 9, 10 nM biotinylated binder
Description: as §1, §2

αvβ6 Integrin [4] = target: T2, αvβ6 Integrin (Homo sapiens, UniProt P06756+P18564); assay: as above; conditions: FIG. 9, 10 nM biotinylated binder, vs scrambled variant
T2 construct: The presence or absence of the surface antigens α3 Integrin and αvβ6 Integrin has been verified by corresponding antibody tests; endogenous in cells
T2 sequence (P06756 31-889 limits assumed): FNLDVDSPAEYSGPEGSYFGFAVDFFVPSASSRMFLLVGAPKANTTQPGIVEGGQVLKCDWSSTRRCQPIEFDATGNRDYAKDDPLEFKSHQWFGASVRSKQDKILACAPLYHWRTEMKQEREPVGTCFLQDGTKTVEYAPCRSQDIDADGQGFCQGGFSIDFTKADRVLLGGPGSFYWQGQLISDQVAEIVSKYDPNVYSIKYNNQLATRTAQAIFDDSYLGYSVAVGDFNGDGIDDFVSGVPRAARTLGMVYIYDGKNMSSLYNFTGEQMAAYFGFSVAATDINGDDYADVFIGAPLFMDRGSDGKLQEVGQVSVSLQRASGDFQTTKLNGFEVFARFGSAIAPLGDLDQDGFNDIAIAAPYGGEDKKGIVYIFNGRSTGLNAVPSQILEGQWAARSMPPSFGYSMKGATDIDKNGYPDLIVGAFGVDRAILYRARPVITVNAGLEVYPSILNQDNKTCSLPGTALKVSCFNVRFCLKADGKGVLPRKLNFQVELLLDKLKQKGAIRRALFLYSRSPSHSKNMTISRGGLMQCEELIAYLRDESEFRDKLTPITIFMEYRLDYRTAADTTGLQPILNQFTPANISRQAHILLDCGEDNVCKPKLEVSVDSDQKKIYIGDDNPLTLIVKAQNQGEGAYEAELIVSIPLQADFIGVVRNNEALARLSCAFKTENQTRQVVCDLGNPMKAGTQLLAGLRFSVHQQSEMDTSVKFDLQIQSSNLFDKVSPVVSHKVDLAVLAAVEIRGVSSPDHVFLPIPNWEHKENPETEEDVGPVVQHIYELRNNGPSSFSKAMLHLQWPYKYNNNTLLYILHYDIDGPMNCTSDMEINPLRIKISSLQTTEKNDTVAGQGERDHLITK
T2 sequence (P06756 891-1048 limits assumed): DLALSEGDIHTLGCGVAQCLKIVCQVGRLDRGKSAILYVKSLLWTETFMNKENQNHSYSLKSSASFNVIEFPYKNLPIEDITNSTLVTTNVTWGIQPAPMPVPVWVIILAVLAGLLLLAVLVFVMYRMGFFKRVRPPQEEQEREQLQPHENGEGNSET
T2 sequence (P18564 22-788): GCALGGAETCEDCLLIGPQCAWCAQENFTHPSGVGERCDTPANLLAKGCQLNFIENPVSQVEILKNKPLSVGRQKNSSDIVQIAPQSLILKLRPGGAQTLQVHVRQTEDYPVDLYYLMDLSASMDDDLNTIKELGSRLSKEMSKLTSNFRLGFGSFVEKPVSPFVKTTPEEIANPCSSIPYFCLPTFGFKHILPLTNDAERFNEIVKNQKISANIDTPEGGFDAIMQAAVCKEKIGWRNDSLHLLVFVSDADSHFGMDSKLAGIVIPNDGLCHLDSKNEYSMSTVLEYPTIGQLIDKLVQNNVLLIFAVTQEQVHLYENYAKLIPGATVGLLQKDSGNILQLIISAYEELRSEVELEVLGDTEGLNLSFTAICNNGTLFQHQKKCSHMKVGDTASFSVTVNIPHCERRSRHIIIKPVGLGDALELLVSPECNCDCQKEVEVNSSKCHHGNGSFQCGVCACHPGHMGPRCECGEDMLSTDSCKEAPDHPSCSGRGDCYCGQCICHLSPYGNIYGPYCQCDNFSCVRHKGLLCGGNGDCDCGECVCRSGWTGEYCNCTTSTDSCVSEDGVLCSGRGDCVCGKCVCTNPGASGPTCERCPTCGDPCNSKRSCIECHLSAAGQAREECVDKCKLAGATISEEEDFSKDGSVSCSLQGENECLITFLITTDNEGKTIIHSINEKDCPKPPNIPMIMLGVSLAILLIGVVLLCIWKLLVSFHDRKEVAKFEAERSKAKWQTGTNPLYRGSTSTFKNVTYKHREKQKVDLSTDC
Description: as §1, §2

human leukocytes [5] = assay: DHR 123 oxidation assay (oxidative burst), human leukocytes; type: cell-based; conditions: FIG. 4B; in vitro in human leukocytes; compared with fMLF
Description: (§3) Oxidative burst in neutrophils form part of the cells host defense, and can be evoked, e.g., by the N-formyl peptide fMLP. (Kim et al, 2003). Oxidation assays are thus a useful tool to determine the potency of formyl peptides. The oxidative burst activity of neutrophils caused by incubation with effector peptides or peptidomimetics was measured by flow cytometry, quantifying the intracellular conversion of dihydrorhodamine 123 (DHR) to rhodamine. In brief, human or murine leukocytes (1.25*10^6 cells/ml) were incubated with catalase, cytochalasin B (Sigma) and DHR (Invitrogen) in Hanks' Buffered Saline Solution (HBSS, without Ca^2+, Mg^2+) with 10 mM Hepes pH 7.4, 5 mM EDTA and 0.3% BSA at 37° C. for 10 minutes followed by incubation with the different effector peptides or peptidomimetics at different concentrations for 15 minutes at 37° C. PMA was used as a positive control.
(§4) All samples were fixed in formaldehyde and kept on ice until analysis using FACS Canto (at least 20,000 cells per sample were counted). Neutrophils were identified based on forward and side scatter characteristics. Analysis of DHR fluorescence was performed by side scatter/FL2 dot plots. Percent of DHR-positive cells were identified by gating on a negative (unstimulated) control sample.

human leukocytes [6] = assay: Chemotaxis assay; type: cell-based; conditions: FIG. 4A; in vitro in human leukocytes; compared with fMLF (devoid of an Ile residue)
Description: To test for the chemotactic effect of effector peptides or peptidomimetics, human leukocytes were re-suspended in Hanks' Buffered Saline Solution (HBSS, without Ca^2+, Mg^2+) with 10 mM Hepes pH 7.4 and 0.3% BSA at 10*10^6 cells/ml. Cells were pre-warmed at 37° C. for 20 min. After adding the effector dilutions in the above buffer into wells of 24-well plates (800 μl/well), a Millicell culture plate insert with 5 μm pore size was placed in each well, followed by immediate addition of 200 μl (2 million) leukocytes. The plate was incubated at 37° C. for 45 min. The total number of leukocytes that migrated to the bottom chamber was determined using a Neubauer chamber, or the numbers of transmigrated monocytes, neutrophils and lymphocytes were determined by flow cytometry (distinguish cell populations in FCS/SSC plot).

mouse leukocytes = assay: DHR 123 oxidation assay (oxidative burst), mouse leukocytes; type: cell-based; conditions: FIG. 5; in vitro in mouse leukocytes; compared with fMLF
Description: as §3, §4

SEQ ID NO: 1: peptidomimetic binder cdGY(3-NO2)GHypNc targeting α3 Integrin; tested biotinylated ([dC][dD]G[Tyr(3-NO2)]G[Hyp]N[dC]; cysteine pairing not given here; also: tested biotinylated, site not given here)
binding to cell line A431 (α3 Integrin [1]; A431 expresses α3 Integrin): binds
binding to cell line PC3 (α3 Integrin [1]; PC3 expresses α3 Integrin): binds
binding to cell line U87-MG (α3 Integrin [1]; U87-MG expresses α3 Integrin): binds
binding to cell line K 562 (α3 Integrin [2]): do not bind

SEQ ID NO: 2: peptide binder RGDLATLRQL targeting αvβ6 Integrin; tested biotinylated (also: biotinylated, place not given here)
binding to cell line PC-3 (αvβ6 Integrin [3]; PC-3 does not express αvβ6 Integrin): do not bind
binding to cell line U87-MG (αvβ6 Integrin [3]; U87-MG does not express αvβ6 Integrin): do not bind
binding to cell line A431 (αvβ6 Integrin [4]; A431 expresses αvβ6 Integrin): binds
binding to cell line HT-29 (αvβ6 Integrin [4]; HT-29 expresses αvβ6 Integrin): binds

fMIFL: N-formyl methionine effector peptide fMIFL, comprises isoleucin; fM=N-formylmethionine, remaining letters L-amino acids (For-MIFL)
activation of oxidative bursts (human leukocytes [5]): much better activation of oxidative bursts
chemotactic effect (human leukocytes [6]): significantly better chemotactic effect
activation of oxidative bursts (mouse leukocytes): much better activation of oxidative bursts
